Source: patent publication US7914827B2, “Use of extracts or extractants of the guajacum types, said extracts or extractants bringing about phosphodiesterase-4 inhibition and method for producing the same” (Max Zeller Soehne AG, priority 2006, dated 2011)

Molecular target: human phosphodiesterase-5 (PDE5) (Homo sapiens, UniProt O76074)
Experiment: PDE5 assay (3H-cGMP as tracer)
Type: biochemical
Conditions: read-out: Inhibitory activity [%], PDE5

CCCc1nn(C)c2c(=O)[nH]c(-c3cc(S(=O)(=O)N4CCN(C)CC4)ccc3OCC)nc12 [Sildenafil]
inhibition at 1 pM: 5%
inhibition at 0.0001 µM: 21%
inhibition at 0.01 µM: 52%
inhibition at 1 µM: 74%
